Results on two molecules are retold here after patent publication US8343911B2, “Methods of inhibiting and treating bacterial biofilms by metal chelators” (University of Iowa Research Foundation, priority 2002, dated 2013).

The structures appear in SMILES notation.

The assay relates to P. aeruginosa biofilms. Put plainly: Antimicrobial susceptibility of biofilms grown in rotating disk reactor (viable cell counts). The assay is classed as cell-based. Particulars: control biofilms grown without conalbumin, FIG. 5. Here is the method:
P. aeruginosa biofilms for susceptibility tests were grown in a rotating disk reactor. Fe-unsaturated conalbumin (Sigma Chemical Co.) was added to standard biofilm medium at indicated concentrations for the duration of biofilm growth. Discs and attached bacteria were then washed 3 times in distilled water, and treated for 4 h in 1 ml of H2O2 (Fisher Scientific) or tobramycin (Eli Lilly, Indianapolis, Ind.) at indicated concentrations. The treated discs were washed 3 times, and bacteria were removed and dispersed in 2 ml sterile PBS by homogenization (Brinkman Homogenizer, model 10/35). Viable cell numbers were enumerated by plate counting.

Take `OO` [H2O2, reference compound]: the “effect on viability of control biofilms” value (500 mM H2O2, 4 h of treatment) is “minimal effects on viability”.
On to `NC[C@H]1O[C@H](O[C@H]2[C@H](O)[C@@H](O[C@H]3O[C@H](CO)[C@@H](O)[C@H](N)[C@H]3O)[C@H](N)C[C@@H]2N)[C@H](N)C[C@@H]1O` [tobramycin, reference compound], for which the “effect on viability of control biofilms” value (1000 μg/ml tobramycin, 4 h of treatment) was “minimal effects on viability”.
